In ChEMBL document CHEMBL3875162, “Synthesis and biological evaluation of new benzimidazole-thiazolidinedione hybrids as potential cytotoxic and apoptosis inducing agents” (Eur J Med Chem, 2016):
Active and inactive are the calls of the source. No cut-off for these calls is given here.

Legend:
A549 [1] = assay: Induction of apoptosis in human A549 cells assessed as destructive fragmentation of nucleus forming horse-shoe shaped structure at 10 to 15 uM after 24 hrs by acridine orange/ethidium bromide-dual staining based fluorescence microscopic method; assay type: functional, cell-based
[2] = Cell cycle arrest in human A549 cells assessed as accumulation at S phase at 5 uM after 24 hrs by propidium iodide staining-based flow cytometry (reference value: 11.5%); assay type: functional
[3] = Cell cycle arrest in human A549 cells assessed as accumulation at S phase at 10 uM after 24 hrs by propidium iodide staining-based flow cytometry (reference value: 11.5%); assay type: functional
[4] = Cell cycle arrest in human A549 cells assessed as decrease in cell levels at G0/G1 phase after 24 hrs by propidium iodide staining-based flow cytometry; assay type: functional
[5] = Cell cycle arrest in human A549 cells assessed as accumulation at G0/G1 phase at 10 uM after 24 hrs by propidium iodide staining-based flow cytometry (reference value: 66.6%); assay type: functional
A549 [6] = assay: Induction of apoptosis in human A549 cells assessed as apoptotic body formation at 10 to 15 uM after 24 hrs by acridine orange/ethidium bromide-dual staining based fluorescence microscopic method; assay type: functional, cell-based
[7] = Antimigratory activity in human A549 cells assessed as cell migration at 15 uM after 24 hrs by phase contrast microscopy-based wound healing assay relative to control; assay type: functional
A549 [8] = assay: Induction of apoptosis in human A549 cells assessed as increase in superoxide production after 24 to 48 hrs by mitoSOX red-probe based fluorescence microscopic method; assay type: functional, cell-based
[9] = Cytotoxicity against human PC3 cells assessed as cell growth inhibition after 48 hrs by MTT assay; assay type: functional, cell-based; details: PC-3, 48 h
[10] = Cell cycle arrest in human A549 cells assessed as accumulation at G0/G1 phase at 5 uM after 24 hrs by propidium iodide staining-based flow cytometry (reference value: 66.6%); assay type: functional
A549 [11] = assay: Induction of apoptosis in human A549 cells assessed as necrotic cells at 15 uM after 24 hrs by Annexin V-FITC/propidium iodide staining based flow cytometry (reference value: 2.3%); assay type: functional
A549 [12] = assay: Induction of mitochondrial membrane potential loss in human A549 cells at 5 uM after 24 hrs by rhodamine-123 staining based flow cytometry relative to control; assay type: functional
A549 [13] = assay: Induction of apoptosis in human A549 cells assessed as viable cells at 10 uM after 24 hrs by Annexin V-FITC/propidium iodide staining based flow cytometry (reference value: 94%); assay type: functional; details: A549, 24 h, read-out: Activity
A549 [14] = assay: Induction of apoptosis in human A549 cells assessed as necrotic cells at 5 uM after 24 hrs by Annexin V-FITC/propidium iodide staining based flow cytometry (reference value: 2.3%); assay type: functional
A549 [15] = assay: Induction of apoptosis in human A549 cells assessed as pyknosis at 5 to 15 uM after 24 hrs by DAPI staining based fluorescence microscopic method; assay type: functional, cell-based
[16] = Cell cycle arrest in human A549 cells assessed as accumulation at G2/M phase at 15 uM after 24 hrs by propidium iodide staining-based flow cytometry (reference value: 23.3%); assay type: functional
A549 [17] = assay: Induction of apoptosis in human A549 cells assessed as chromatin condensation at 5 to 15 uM after 24 hrs by DAPI staining based fluorescence microscopic method; assay type: functional, cell-based
A549 [18] = assay: Induction of apoptosis in human A549 cells assessed as early apoptotic cells at 5 uM after 24 hrs by Annexin V-FITC/propidium iodide staining based flow cytometry (reference value: 2.6%); assay type: functional
A549 [19] = assay: Induction of apoptosis in human A549 cells assessed as viable cells at 5 uM after 24 hrs by Annexin V-FITC/propidium iodide staining based flow cytometry (reference value: 94%); assay type: functional; details: A549, 24 h, read-out: Activity
A549 [20] = assay: Antimigratory activity in human A549 cells after 24 hrs by phase contrast microscopy-based wound healing assay; assay type: functional, cell-based
A549 [21] = assay: Induction of apoptosis in human A549 cells assessed as nucleus fragmentation at 5 to 15 uM after 24 hrs by DAPI staining based fluorescence microscopic method; assay type: functional, cell-based
A549 [22] = assay: Induction of morphological changes in human A549 cells assessed as cell shrinkage at 5 to 15 uM after 24 hrs by phase contrast microscopic method; assay type: functional, cell-based
A549 [23] = assay: Induction of apoptosis in human A549 cells assessed as appearance of horse-shoe shaped nucleus at 5 to 15 uM after 24 hrs by DAPI staining based fluorescence microscopic method; assay type: functional, cell-based
A549 [24] = assay: Induction of morphological changes in human A549 cells assessed as […] at 5 to 15 uM after 24 hrs by phase contrast microscopic method; assay type: functional, cell-based
[25] = Antimigratory activity in human A549 cells assessed as cell migration at 10 uM after 24 hrs by phase contrast microscopy-based wound healing assay relative to control; assay type: functional
A549 [26] = assay: Induction of apoptosis in human A549 cells assessed as necrotic cells at 10 uM after 24 hrs by Annexin V-FITC/propidium iodide staining based flow cytometry (reference value: 2.3%); assay type: functional
A549 [27] = assay: Induction of apoptosis in human A549 cells assessed as decrease in cell viability at 5 to 15 uM after 24 hrs by phase contrast microscopic method; assay type: functional, cell-based
A549 [28] = assay: Induction of apoptosis in human A549 cells assessed as late apoptotic cells at 10 uM after 24 hrs by Annexin V-FITC/propidium iodide staining based flow cytometry (reference value: 0.8%); assay type: functional
A549 [29] = assay: Inhibition of F-actin polymerization in human A549 cells assessed as disruption of actin fibre assembly after 24 hrs by rhodamine-phalloidin/[…]-dual staining based fluorescent microscopic method; assay type: cell-based
[30] = Antimigratory activity in human A549 cells assessed as cell migration at 5 uM after 24 hrs by phase contrast microscopy-based wound healing assay relative to control; assay type: functional
A549 [31] = assay: Induction of apoptosis in human A549 cells assessed as condensation of chromatin at 5 uM after 24 hrs by acridine orange/ethidium bromide-dual staining based fluorescence microscopic method; assay type: functional, cell-based
[32] = Antimigratory activity in human A549 cells assessed as cell migration at 15 uM after 48 hrs by phase contrast microscopy-based wound healing assay relative to control; assay type: functional
[33] = Cytotoxicity against human MDA-MB-231 cells assessed as cell growth inhibition after 48 hrs by MTT assay; assay type: functional, cell-based; details: MDA-MB-231, 48 h
A549 [34] = assay: Induction of apoptosis in human A549 cells assessed as late apoptotic cells at 5 uM after 24 hrs by Annexin V-FITC/propidium iodide staining based flow cytometry (reference value: 0.8%); assay type: functional
[35] = Cell cycle arrest in human A549 cells assessed as accumulation at G0/G1 phase at 15 uM after 24 hrs by propidium iodide staining-based flow cytometry (reference value: 66.6%); assay type: functional
A549 [36] = assay: Induction of mitochondrial membrane potential loss in human A549 cells at 15 uM after 24 hrs by rhodamine-123 staining based flow cytometry relative to control; assay type: functional
A549 [37] = assay: Induction of apoptosis in human A549 cells assessed as viable cells at 15 uM after 24 hrs by Annexin V-FITC/propidium iodide staining based flow cytometry (reference value: 94%); assay type: functional; details: A549, 24 h, read-out: Activity
[38] = Cytotoxicity against human MCF10A cells assessed as cell growth inhibition after 48 hrs by MTT assay; assay type: toxicity, cell-based, MCF-10A
[39] = Cytotoxicity against human A549 cells assessed as cell growth inhibition after 48 hrs by MTT assay; assay type: functional, cell-based; details: A549, 48 h

In the case of `Cn1c(/C=C2\SC(=O)N(CC(=O)Nc3nc(-c4ccccc4)cs3)C2=O)nc2ccccc21`, the Activity (A549 [1]) is reported as “Active”, the Activity [2] is reported as 11.4% and the Activity [3] is reported as 7.9%. The Activity [4] was “Dose-dependent effect”, the Activity [5] was 44.8% and the Activity (A549 [6]) was “Active”. The Activity [7] was 60.4%, the Activity (A549 [8]) was “Dose-dependent effect” and the IC50 [9] was 39.9 µM. For the same compound, the Activity [10] was 48.9%, the Activity (A549 [11]) was 2.5% and the Activity (A549 [12]) was 24.6%. The viability at 10 µM (A549 [13]) was 73.3%, the Activity (A549 [14]) was 0.6% and the Activity (A549 [15]) was “Active”. For the same compound, the Activity [16] was 57.8%, the Activity (A549 [17]) was “Active” and the Activity (A549 [18]) was 12.8%. For the same compound, the viability at 5 µM (A549 [19]) was 80.5%, the Activity (A549 [20]) was “Dose-dependent effect” and the Activity (A549 [21]) was “Active”. The Activity (A549 [22]) was “Active”, the Activity (A549 [23]) was “Active” and the Activity (A549 [24]) was “Active”. For the same compound, the Activity [25] was 74.3%, the Activity (A549 [26]) was 3% and the Activity (A549 [27]) was “Active”. For the same compound, the Activity (A549 [28]) was 7.9%, the inhibition (A549 [29]) was “Dose-dependent effect” and the Activity [30] was 77.8%. For the same compound, the Activity (A549 [31]) was “Active”, the Activity [32] was 29.6% and the IC50 [33] was 29.2 µM. It also gave an Activity (A549 [34]) of 6.2%, an Activity [35] of 30.5% and an Activity (A549 [36]) of 45.8%. The viability at 15 µM (A549 [37]) was 66.8%, the IC50 at 48 h [38] was > 100 µM and the IC50 [39] was 11.5 µM.
